Read-outs that look alike come from different tables or passages of the source.
What was measured:
Assay type in all cases: cell-based
MM.1S cells = assay: Effect of the compound on the proliferation of MM.1S cells (MTS); conditions: Homo sapiens, MM1.S, 168 h, 7 days, read-out: Cell inhibitory activity (IC50)
Description: MM.1S cells were cultured with 1640 plus 10% fetal bovine serum and collected. The cell concentration was diluted according to the action time of 7 days, and 180 ul cell suspension was added to each well of the 96-well cell plate to make the cell count to be 20,000. 20 ul of DMSO with a final concentration of 0.2% was added to the control cell wells. The compound was diluted 5-fold with the 10 mM stock solution, and 20 ul was also added to the compound cell wells (the final concentration of DMSO is 0.2%). The cells were placed in a 37° C., 5% CO2 incubator and incubated for 7 days. After preparing the reaction solution according to the MTS kit (Promega, G5430), 20 μL was added to each well, incubated in a 37° C., 5% CO2 incubator for 3-4 h. Read the 490 nm absorbance value with a microtiter plate, and used the 690 nm absorbance value as the background value and OD490-OD690 as the final initial data. The formula for calculating the inhibition rate of the compound is: inhibition rate=(OD DMSO-ODcompound)/(ODDMSO-Oblank)×100%. The compound's proliferation inhibition IC50 was fitted by Graph Pad Prism 5.0. The experiment was repeated three times, and three parallel experiments were used to calculate the average and standard deviation each time.

MV-4-11 cells = assay: Effect of the compound on proliferation of MV-4-11 cells (MTS); conditions: Homo sapiens
Description: MV-4-11 cells were cultured with IMDM plus 10% fetal bovine serum and collected. The cell concentration was diluted according to the action time of 7 days, and 180 ul of cell suspension was added to each well of a 96-well cell plate to make the cell count to be 2000. 20 ul of DMSO with a final concentration of 0.2% was added to the control cell wells. The compound was diluted 5-fold with the 10 mM stock solution, and 20 ul was also added to the compound cell wells (the final concentration of DMSO was 0.2%). The cells were placed in a 37° C., 5% CO2 incubator and incubated for 7 days. After preparing the reaction solution according to the MTS kit (Promega, G5430), 20 μL was added to each well, incubated in a 37° C., 5% CO2 incubator for 3-4 h. Read the 490 nm absorbance value with a microtiter plate, and used the 690 nm absorbance value as the background value and OD490-OD690 as the final initial data. The formula for calculating the inhibition rate of the compound was: inhibition rate=(OD DMSO-ODcompound)/(ODDMSO-Oblank)×100%. The compound's proliferation inhibition IC50 was fitted by Graph Pad Prism 5.0. The experiment was repeated three times, and three parallel experiments were used to calculate the average and standard deviation each time. The cell viability test results were shown in Table 3: A means cell viability IC50<1 μM, B means cell viability 1 μM≤IC50≤20 μM, C means cell viability IC50>20 μM.

Mino cells = assay: Effect of the compound on the proliferation of Mino cells (MTS); conditions: Homo sapiens, 72 h, 3 days, read-out: Inhibitory activity (IC50)
Description: Mino cells were cultured with 1640 plus […] and collected. The cell concentration was diluted according to the action time of 3 days, and 90 ul cell suspension was added to each well of the 96-well cell plate to make the cell count to be 8000. 10 ul of DMSO with a final concentration of 0.2% was added to the control cell wells. The compound was diluted 5-fold with the 10 mM stock solution, and 10 ul was also added to the compound cell wells (the final concentration of DMSO was 0.2%). The cells were placed in a 37° C., […] incubator and incubated for 3 days. After preparing the reaction solution according to the MTS kit (Promega, G5430), 20 μL was added to each well, incubated in a 37° C., 5% CO2 incubator for 3-4 h. Read the 490 nm absorbance value with a microtiter plate, and used the 690 nm absorbance value as the background value and OD490-OD690 as the final initial data. The formula for calculating the inhibition rate of the compound was: inhibition rate=(OD DMSO-ODcompound)/(ODDMSO-Oblank)×100%. The compound's proliferation inhibition IC50 was fitted by Graph Pad Prism 5.0. The experiment was repeated three times, and three parallel experiments were used to calculate the average and standard deviation each time.

[1] = MV4-11, 168 h, 7 days, MTS, read-out: Inhibitory activity (IC50)
[2] = MV4-11, read-out: cytostatic activity (IC50) on MV-4-11 cells

SMILES	IC50 (MM.1S cells) [nM]	IC50 (MV-4-11 cells; [1]) [nM]	IC50 (Mino cells) [nM]	IC50 (MV-4-11 cells; [2]) [nM]
COC[C@H](Cc1ccccc1)n1cc(COc2cccc3c2CN(C2CCC(=O)NC2=O)C3=O)nn1 (stereo partly shown) [Compound 55]	< 150	1000 to 20000		
O=C1CCC(N2Cc3c(OCc4cn(C56CC7CC(CC(C7)C5)C6)nn4)cccc3C2=O)C(=O)N1 [Compound 76, 3-(4-((1-((3S, 5S, 7S)-adamantan-1-yl)-1H-1,2,3-triazol-4-yl)methoxy)-1-isoindolin-2-yl) piperidin-2,6-dione]	< 150	< 1000		
O=C1CCC(N2Cc3c(OCc4ncc(-c5ccc(OC(F)(F)F)cc5)s4)cccc3C2=O)C(=O)N1 (stereo not shown) [Compound 39, 3-(1-oxo-4-((5-(4-trifluoromethoxyphenyl)thiazol-2-)methoxy)isoindolin-2-) piperidine-2,6-dione]	< 150		150 to 20000	
O=C1CCC(N2Cc3c(OC[C@@H]4CCN(c5ccc(OC(F)(F)F)cc5)C4)cccc3C2=O)C(=O)N1 (stereo partly drawn) [Compound 70, 3-(1-oxo-4-(((R)-1-(4-(trifluoromethoxy)phenyl)pyrrolin-3-)methoxy)isoindolin-2-) piperidine-2,6-dione]	< 150	1000 to 20000	150 to 20000	
O=C1CCC(N2Cc3c(OCc4cn(-c5ccc6ncsc6c5)nn4)cccc3C2=O)C(=O)N1 (stereo not shown) [Compound 23, 3-(4-((1-(benzo [d]thiazol-6)-1H-1,2,3-triazol-4-(methoxy)-1-oxoisoindolin-2-)piperidine-2,6-dione]	< 150		< 150	
Cc1nc2cccc(N)c2c(=O)n1C1CCC(=O)NC1=O (stereo not shown) [CC-122, reference compound]	< 150	> 20000	150 to 20000	> 20000
O=C1CCC(N2Cc3c(OCc4cn(-c5cccc(Cl)c5Cl)nn4)cccc3C2=O)C(=O)N1 (stereo not shown) [Compound 18, 3-(4-((1-(2,3-dichlorophenyl)-1H-1,2,3-triazol-4-)methoxy)-1-oxoisoindolin-2-) piperidine-2,6-dione]	< 150	< 1000	< 150	
O=C1CCC(N2Cc3c(NCc4cnc(-c5cccc(OC(F)(F)F)c5)o4)cccc3C2=O)C(=O)N1 (stereo not shown) [Compound 90]	< 150		< 150	
O=C1CCC(N2Cc3c(OCc4ccc(CN5CCOCC5)cc4)cccc3C2=O)C(=O)N1 (stereo not shown) [CC-220, reference compound]	< 150	> 20000	< 150	> 20000
O=C1CCC(N2Cc3c(OCc4cn(-c5ccc(Cl)cc5)nn4)cccc3C2=O)C(=O)N1 (stereo not shown) [Compound 74, 3-(4-((1-(4-chlorophenyl)-1H-1,2,3-triazol-4-yl)methoxy)-1-oxoisoindolin-2-yl) piperidine-2,6-dione]	< 150	< 1000		
O=C1CCC(N2Cc3c(OCc4ncc(-c5ccc(OC(F)(F)F)cc5)o4)cc(F)cc3C2=O)C(=O)N1 (stereo not shown) [Compound 81, 3-(6-fluoro-1-oxo-4-((5-(4-(trifluoromethoxy)phenyl)oxazol-2-yl)methoxy)isoindolin-2-yl) piperidine-2,6-dione]	< 150	< 1000		
O=C1CCC(N2Cc3c(OCc4cnc(-c5ccc(OC(F)(F)F)cc5)s4)cccc3C2=O)C(=O)N1 (stereo not shown) [Compound 44, 3-(1-oxo-4-((2-(4-trifluoromethoxyphenyl)thiazol-5-)methoxy)isoindolin-2-) piperidine-2,6-dione]	< 150		< 150	
O=C1CCC(N2Cc3c(OCc4cn(-c5ccc(OCC6CCOCC6)cc5)nn4)cccc3C2=O)C(=O)N1 (stereo not shown) [Compound 29, 3-(1-oxo-4-((1-(4-((2H-tetrahydropyran-4-)methoxy)phenyl)-1H-1,2,3-triazol-4-)methoxy)isoindolin-2-) piperidine-2,6-dione]	< 150		150 to 20000	
O=C1CCC(N2Cc3c(OCc4cn(-c5ccc(O[C@@H]6CCOC6)cc5)nn4)cccc3C2=O)C(=O)N1 (stereo partly drawn) [Compound 24, 3-(1-oxo-4-((1-(4-(((R)-tetrahydrofuran-3-)oxy)phenyl)-1H-1,2,3-triazol-4-)methoxy)isoindolin-2-)piperidine-2,6-dione]	< 150		< 150	
O=C1CCC(N2Cc3c(OCc4ncc(-c5ccc(OC(F)(F)F)cc5)o4)cccc3C2=O)C(=O)N1 (stereo not shown) [Compound 40, 3-(1-oxo-4-((5-(4-trifluoromethoxyphenyl)oxazol-2-)methoxy)isoindolin-2-) piperidine-2,6-dione]	< 150		< 150	
O=C1CCC(N2Cc3c(NCc4ncc(-c5ccc(OC(F)(F)F)cc5)o4)cccc3C2=O)C(=O)N1 (stereo not shown) [Compound 93]	< 150		150 to 20000	
COCCn1ccc2cc(-n3cc(COc4cccc5c4CN(C4CCC(=O)NC4=O)C5=O)nn3)ccc21 (stereo not shown) [Compound 28]	< 150	< 1000	< 150	
O=C1CCC(N2Cc3c(OCc4cn(-c5ccc(Cl)c(Cl)c5)nn4)cccc3C2=O)C(=O)N1 (stereo not shown) [Compound 75, 3-(4-((1-(3,4-dichlorophenyl)-1H-1,2,3-triazol-4-yl)methoxy)-1-isoindolin-2-yl) piperidine-2,6-dione]	< 150	< 1000		
O=C1CCC(N2Cc3c(OCc4cn(-c5ccc(OC(F)(F)F)cc5)nn4)cc(F)cc3C2=O)C(=O)N1 (stereo not shown) [Compound 77, 3-(6-fluoro-1-oxo-4-((1-(4-(trifluoromethoxy)phenyl)-1H-1,2,3-triazol-4-yl)methoxy)isoindolin-2-yl) piperidine-2,6-dione]	< 150	< 1000		
O=C1CCC(N2Cc3c(OCc4cn(-c5ccc(O[C@H]6CCOC6)cc5)nn4)cccc3C2=O)C(=O)N1 (stereo partly drawn) [Compound 25, 3-(1-oxo-4-((1-(4-(((S)-tetrahydrofuran-3-)oxy)phenyl)-1H-1,2,3-triazol-4-)methoxy)isoindolin-2-)piperidine-2,6-dione]	< 150		< 150	
O=C1CCC(N2Cc3c(OCc4cn(-c5ccc(N6CCOCC6)cc5)nn4)cccc3C2=O)C(=O)N1 (stereo not shown) [Compound 19, 3-(4-((1-(4-morpholinophenyl)-1H-1,2,3-triazol-4-)methoxy)-1-oxoisoindolin-2-) piperidine-2,6-dione]	< 150		150 to 20000	
O=C1CCC(N2Cc3c(OCc4ccc(-c5ccc(OC(F)(F)F)cc5)o4)cccc3C2=O)C(=O)N1 (stereo not shown) [Compound 42, 3-(1-oxo-4-((5-(4-trifluoromethoxyphenyl)furan-2-)methoxy)isoindolin-2-) piperidine-2,6-dione]	< 150		< 150	
O=C1CCC(N2Cc3c(OCc4nnc(-c5ccc(OC(F)(F)F)cc5)o4)cccc3C2=O)C(=O)N1 (stereo not shown) [Compound 43, 3-(1-oxo-4-((5-(4-trifluoromethoxyphenyl)-1,3,4-oxadiazol-2-)methoxy)isoindolin-2-) piperidine-2,6-dione]	< 150		< 150	
O=C1CCC(N2Cc3c(OCc4nnc(-c5ccc(OC(F)(F)F)cc5)s4)cccc3C2=O)C(=O)N1 (stereo not shown) [Compound 41, 3-(1-oxo-4-((5-(4-trifluoromethoxyphenyl)-1,3,4-thiadiazol-2-)methoxy)isoindolin-2-) piperidine-2,6-dione]	< 150		150 to 20000	

Reference: US20220041578A1, “ISOINDOLINE COMPOUND, AND PREPARATION METHOD, PHARMACEUTICAL COMPOSITION, AND APPLICATION OF ISOINDOLINE COMPOUND” (Shanghai Institute of Meteria Medica, Chinese Academy of …, priority 2018, published 2022)
